Experimental data taken from patent US7138543B2, “Thiolalkyl benzoic acid derivatives” (Guilford Pharmaceuticals Inc., priority 2001, dated 2006).

How the values were obtained:
BB/W diabetic rats [1] = test: Progression of neuropathic pain in BB/W model (withdrawal latency); assay type: in vivo; conditions: 10 mg/kg i.p. daily; vs diabetic vehicle-treated rats, from 4 weeks through six months of treatment, FIG. 11
Source text: In vivo Assay of NAALADase Inhibitors on Progression of Neuropathic Pain in BB/W Models
(§1) Male BB/W rats (BRI, Mass) spontaneously develop a cell mediated autoimmune destruction of pancreatic B cells, resulting in onset of insulin-dependent (Type I) diabetes (Awata, Guberski, Endocrinology (1995) 136(12):5731–5). […] This renders them valuable for experimental trials of new compounds for future treatments of this major disorder. In the present study, Compound A and Compound D were examined for their ability to alter the progression of diabetic neuropathy. The rats received daily injection of Compound A or Compound D (10 mg/kg i.p.) or vehicle, starting at the onset of diabetes (hyperglycemia) and up to 6 months thereafter. Another group of non-diabetic rats also receiving vehicle were tested. All animals were continuously monitored for body weight, urine volume, blood sugar and glycated haemoglobin. In the first month of the study, all animals were tested for thermal nociception in a Hargreaves apparatus, weekly. After the first month this was done biweekly and then monthly. The testing consists of directing an infrared heat source onto the dorsal surface of the rat hindpaw and noting the time taken for the animal to remove its paw (see Hargreaves et al., J. Biol. Chem. (1988) 263(36):19392–7 for a description of the experimental method). […]

STZ-diabetic rats [2] = test: Diabetic neuropathy in STZ model (motor and sensory nerve conduction velocity); assay type: in vivo
Protocol: In vivo Assay of NAALADase Inhibitors on Diabetic Neuropathy in STZ Model
Motor and sensory nerve conduction velocity was also measured in STZ-diabetic animals after 4, 8 and 12 weeks of treatment (see De Koning et al., supra, for a description of the experimental method). Briefly, stimulating needle electrodes were inserted close to the sciatic and tibial nerves with recording electrodes being placed subcutaneously over the distal foot muscles, in anesthetized rats.

STZ diabetic rats [3] = test: Reversal of diabetic neuropathy in STZ model, delayed dosing: nerve conduction velocity; assay type: in vivo
Protocol: (§2) In vivo Assay of NAALADase Inhibitors—Reversal of Diabetic Neuropathy in STZ Model
(§3) General Method for STZ Model—Delayed Dosing
(§4) Rats (200–225 grams) were injected with STZ (70 mg/kg) into the tail vein. Diabetes (>350 mg/dl) was confirmed in all rats, 4 weeks after STZ administration. Rats were left untreated until 35–49 days after STZ. Compound D (1, 3, or 10 mg/kg), Compound E (10 mg/kg), or vehicle were dosed daily p.o. following confirmation of hyperalgesia and/or nerve conduction velocity deficits. In separate experiments, onset of treatment was delayed until 60 to 90 days after STZ administration. Nerve conduction velocity or withdrawal response to thermal stimulation of hind paws was measured at intervals, usually bi-weekly for thermal response and monthly for nerve conduction velocity.
Nerve Conduction Velocity Measurements
Sensory and motor nerve conduction velocities were evaluated using the method of De Koning and Gispen (Peptides 8: 415–422, 1987). Electrophysiological evaluation was carried out within one hour of dosing. Animals were anesthetized with isoflurane and stimulating needle electrodes were inserted close to the sciatic nerve at the sciatic notch and the tibial nerve near the ankle. Recording electrodes were placed over the foot muscles. Stimuli were applied and responses recorded. Motor and sensory nerve conduction velocities were calculated by measuring the distance between the sciatic notch and ankle sites, and the latency between the M-wave and the H-reflex.

BB/W diabetic rats [4] = test: Nerve conduction velocity in BB/W model; assay type: in vivo; conditions: 10 mg/kg daily; vs diabetic vehicle controls, from 8 weeks to six months, FIG. 12
Source text: as §1, with “monthly.” for “monthly. The testing consists of directing an infrared heat source onto the dorsal surface of the rat hindpaw and noting the time taken for the animal to remove its paw (see Hargreaves et al., J. Biol. Chem. (1988) 263(36):19392–7 for a description of the experimental method).”
Nerve conduction velocity was also measured every two weeks through the first eight weeks of treatment and every month thereafter through to the six months of treatment (see De Koning et al., Peptides, Vol. 8, No. 3, pp. 415–22 (1987) for a description of the experimental method). […]

STZ diabetic rats [5] = test: Reversal of diabetic neuropathy in STZ model, delayed dosing: thermal hyperalgesia; assay type: in vivo
Protocol: as §2, §3, §4
Animals were acclimated to the apparatus for at least 5 min. An infra-red source was placed under below the plantar surface of the rat hind-paw. The intensity of the source was adjusted so that latency for normal rats was about 10 secs. Animals were tested for thermal response latency according to the method of Hargreaves et al (Pain 77–88, 1988). Each animal was tested 8 times (4 each hind limb) and the latency of response recorded automatically to nearest 0.1 sec. An average of the last 4 measurements for each paw was calculated (8 total measurements) and noted for each rat.

STZ-diabetic rats [6] = test: Neuropathic pain in STZ model (Hargreaves thermal nociception); assay type: in vivo, Sprague-Dawley rats; conditions: 10 mg/kg i.p. daily, started 45 days post-STZ
Protocol: In vivo Assay of NAALADase Inhibitors on Neuropathic Pain in STZ Model
Male Sprague-Dawley rats (200–225 g) were rendered diabetic by intravenous administration of streptozotocin (“STZ”, 70 mg/kg in phosphate buffered saline). Diabetic animals were divided into five groups: one group receiving Compound A (10 mg/kg or 1 mg/kg), Compound D (10 mg/kg or 1 mg/kg) or vehicle. Another group of animals (non-STZ treated) served as non-diabetic controls. Drug/vehicle treatment was started in diabetic animals 45 days post-STZ administration. STZ-induced diabetic rats were tested for sensitivity to a heat source as soon as blood glucose levels rose to 320 mg/dl or above (30 days post STZ). The rats were then acclimated to a Hargreaves apparatus and thermal nociception was monitored using an infrared heat source directed into the dorsal surface of the hindpaw, and the time taken for the animal to remove its paw noted to the nearest 0.1 seconds (see Hargreaves et al., J. Biol. Chem. (1988) 263(36):19392–7 for a description of the experimental method). The intensity of the beam source was adjusted such that the mean latency for control animals (non-STZ treated) was approximately 10 seconds. Each animal was tested 8 times and the mean difference score (between mean non-diabetic control latency and mean diabetic latency) are graphically presented in FIGS. 7A and 7B.

Question: What does the source list for `O=C(O)CCC(CCS)C(=O)O` (centres unmarked) [Compound D, 2-(2-sulfanylethyl)pentanedioic acid]?
Answer: withdrawal latency (BB/W diabetic rats [1]): longer withdrawal latencies; treatment time at which increase of motor and sensory nerve conduction velocities was significant (STZ-diabetic rats [2]; 1 mg/kg dose): at the earlier time periods; motor and sensory nerve conduction velocities (STZ-diabetic rats [2]; either dose (10 mg/kg or 1 mg/kg), vs diabetic controls, FIGS. 10A and 10B): increased both motor and sensory nerve conduction velocities; motor nerve conduction velocity (STZ diabetic rats [3]; daily p.o., within 8 weeks of dosing, persisted through 12 weeks, FIG. 23): reversed the motor nerve conduction velocity towards normal; motor nerve conduction (STZ diabetic rats [3]; lower doses (1 and 3 mg/kg), even 8 weeks after dosing, FIG. 27): remained unimproved; sensory nerve conduction (STZ diabetic rats [3]; lower doses (1 and 3 mg/kg), within 4 weeks of treatment, FIG. 26): significantly improved towards normal; sensory and motor nerve conduction velocity deficits (STZ diabetic rats [3]; untreated until 60 days after STZ treatment, external CRO, FIGS. 28 and 29): Partial reversal of both deficits; nerve conduction velocity (BB/W diabetic rats [4]): significantly less severe nerve conduction deficits; neuropathic hyperalgesia (thermal response latency) (STZ diabetic rats [5]; daily p.o., treatment from 5 weeks post STZ, within two weeks of treatment, FIG. 22): reversed towards normal; neuropathic pain abnormalities (STZ diabetic rats [5]; lower doses (1 and 3 mg/kg) initiated after 7 weeks of STZ treatment, FIG. 25): Significant reduction in pain abnormalities; hyperalgesic response (withdrawal latency difference score) (STZ-diabetic rats [6]): completely reversed
